Usually Ki stands for the equilibrium dissociation constant of an inhibitor or competing ligand from its target.

In this test the target is T1, LXRβ (Homo sapiens, UniProt P55055).
T1 construct: were made by cloning the appropriate full-length cDNAs into the pBacPakhis1 vector; poly-His (pBacPakhis1) (N); made in house; host or cells: Sf9 insect cells (baculovirus), crude lysate
As to the kind of experiment: Scintillation proximity assay (SPA), competition with 3H-24,25-epoxycholesterol. Type of test: binding. The note with it: average Ki with respect to LXR β, read-out: Ki(b). As to the method: The SPA assay measures the radioactive signal generated by the binding of ^3H-24,25-epoxycholesterol to LXRα or LXRβ. The basis of the assay is the use of SPA beads containing a scintillant, such that when binding to the receptor brings the labeled ligand into proximity with the bead, the energy from the label stimulates the scintillant to emit light. The light is measured using a standard microplate scintillation reader. The ability of a ligand to bind to a receptor can be measured by assessing the degree to which the compound can compete off a radiolabelled ligand with known affinity for the receptor.
1. Label: ^3H-24,25-epoxy-cholesterol (Amersham)
3. LXRβ lysate: Baculovirus expressed LXRβ/RXR heterodimer with RXR having a 6-HIS tag produced as a crude lysate
4. SPA beads: Ysi copper His-tag SPA beads (Amersham)
Baculovirus expression plasmids for human RXR α (accession No NM_002957), LXR a (accession No U22662), LXR β (accession No U07132) were made by cloning the appropriate full-length cDNAs into the pBacPakhis1 vector (Clontech, CA) following standard procedures. Insertion of the cDNAs into the pBAcPakhis1 vector polylinker created an in frame fusion to the cDNA to an N-terminal poly-His tag present in pBacPakhis1. Correct cloning was confirmed by restriction mapping, and/or sequencing.
Cell lysates were prepared by infecting healthy, Sf9 insect cells at a density of approximately 1.25×10^6/ml at 27° C., in a total volume of 500 mL per 1 L sized spinner flasks, cultured under standard conditions. To prepare LXRα lysate, insect cells were co-transfected with the LXR α expression cassette at an M.O.I of 0.5 to 0.8 and with the RXR expression cassette at a M.O.I. of approximately 1.6. To prepare LXRβ lysate, insect cells were co-transfected with the LXR β expression cassette at an M.O.I of approximately 1.6 and with the RXR expression cassette at a M.O.I. of approximately 1.6. In both cases cells were incubated for 48 hours at 27° C. with constant shaking prior to harvesting.
After incubation, cells were harvested by centrifugation and pelleted. Cell pellets were resuspended in two volumes of ice-cold freshly prepared extraction buffer (20 mM Tris pH 8.0, 10 mM Imidazole, 400 mM NaCl, containing one EDTA free protease inhibitor tablet (Roche Catalog No: 1836170) per 10 ml of extraction buffer).
Cells were homogenized slowly on ice using a Douncer to achieve 80-90% cell lysis. The homogenate was centrifuged in a pre-chilled rotor (Ti50 or Ti70, or equivalent) at 45,000 rpm for 30 minutes at 4° C. Aliquots of the supernatant were frozen on dry ice and stored frozen at −80° C. until quantification and quality control. Aliquots of the lysates were tested in the SPA assay to ensure lot to lot consistency, and via SDS-PAGE analysis after purification using Ni-NTA Resin (Qiagen) and adjusted for protein concentration and expression level prior to use in screening assays.
[^3H] 24,25 Epoxycholesterol (EC) solution: For a single 384-well plate (or 400 wells), 21 μL of [^3H] EC (specific activity 76.5 Ci/mmol, concentration 3.2 mCi/mL) was added to 4.4 mL of 2×SPA buffer to provide for a final concentration of 200 nM. For each additional 384-well plate, an additional 19.1 μL of [^3H] EC was added to 4.0 mL of additional 2×SPA buffer. The final concentration of [^3H] EC in the well was 50 nM.
LXRβ lysate (prepared as above) was diluted with protein lysate dilution buffer. 1400 μL of diluted LXRβ lysate was prepared per 384-well plate, ([…]) and 1120 μL of diluted LXRβ lysate was prepared for each additional 384-well plate.
SPA bead solution: For a 384-well plate (or 400 wells), 3.75 mL of 2×SPA buffer w/o EDTA, 2.25 mL of H2O, and 1.5 mL of Ysi His-tag SPA beads (vortex well before taking) were mixed together. For each additional 384-well plate, an additional 3.5 mL of 2×SPA buffer w/o EDTA, 2.1 mL of H2O, and 1.4 mL of Ysi His-tag SPA beads were mixed together. […]
On the technique in general: In a scintillation proximity assay essentially only radioactivity close to the scintillant gives light.

T1 sequence (P19793 whole entry): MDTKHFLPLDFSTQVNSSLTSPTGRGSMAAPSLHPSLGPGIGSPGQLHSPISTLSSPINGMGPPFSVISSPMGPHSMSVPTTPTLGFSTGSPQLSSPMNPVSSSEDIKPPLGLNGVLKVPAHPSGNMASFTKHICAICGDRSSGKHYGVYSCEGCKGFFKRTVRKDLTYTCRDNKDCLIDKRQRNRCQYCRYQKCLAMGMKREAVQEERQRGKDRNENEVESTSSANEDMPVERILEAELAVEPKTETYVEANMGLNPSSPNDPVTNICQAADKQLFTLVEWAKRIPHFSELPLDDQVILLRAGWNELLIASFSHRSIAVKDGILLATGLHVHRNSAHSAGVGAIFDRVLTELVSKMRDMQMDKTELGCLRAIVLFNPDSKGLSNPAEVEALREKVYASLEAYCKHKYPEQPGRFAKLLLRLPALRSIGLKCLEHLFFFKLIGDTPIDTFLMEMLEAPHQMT
T1 sequence (P55055 whole entry): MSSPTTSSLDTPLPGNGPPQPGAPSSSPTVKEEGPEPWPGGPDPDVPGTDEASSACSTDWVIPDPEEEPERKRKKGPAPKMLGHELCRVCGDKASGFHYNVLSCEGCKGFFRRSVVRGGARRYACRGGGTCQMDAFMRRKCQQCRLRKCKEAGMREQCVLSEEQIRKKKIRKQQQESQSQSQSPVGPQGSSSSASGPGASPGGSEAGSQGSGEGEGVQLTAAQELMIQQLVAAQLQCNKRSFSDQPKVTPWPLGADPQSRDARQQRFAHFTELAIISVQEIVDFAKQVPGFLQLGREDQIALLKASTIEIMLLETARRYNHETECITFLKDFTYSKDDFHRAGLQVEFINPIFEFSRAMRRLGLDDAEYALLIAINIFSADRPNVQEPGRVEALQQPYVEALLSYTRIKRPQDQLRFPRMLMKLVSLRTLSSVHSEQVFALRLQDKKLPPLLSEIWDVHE

Consider `Cc1ccc(Cn2c(C#CC(C)(C)O)cc3ccccc3c2=O)c(C)c1` [2-(2,4-dimethylbenzyl)-3-(3-hydroxy-3-methylbut-1-ynyl)-2H-isoquinolin-1-one], for which the Ki was greater than 500 nM.
Consider `Cc1ccc(Cn2c(-c3ccc(Oc4ccccc4)cc3)cc3ccccc3c2=O)c(C)c1` [2-(2,4-dimethylbenzyl)-3-(4-phenoxyphenyl)-2H-isoquinolin-1-one], for which the Ki lay in the range of 10 to 150 nM.
On to `Cc1cccc(-c2cc3ccccc3c(=O)n2Cc2ccc(C)cc2C)c1` [2-(2,4-dimethylbenzyl)-3-m-tolyl-2H-isoquinolin-1-one], for which the Ki is 10 to 150 nM.
Regarding `Cc1ccc(Cn2c(-c3ccsc3)cc3ccccc3c2=O)c(C)c1` [2-(2,4-dimethylbenzyl)-3-thiophen-3-yl-2H-isoquinolin-1-one], the Ki fell in the range of 150 to 500 nM.
Under `Cc1cccc(-c2cc3ccccc3c(=O)n2Cc2ccccc2)c1` [2-benzyl-3-m-tolyl-2H-isoquinolin-1-one] stands greater than 500 nM; under `O=c1c2c(Cl)cccc2cc(-c2cc(-c3cc(C(F)(F)F)cc(C(F)(F)F)c3)co2)n1Cc1ccc(F)cc1F` [3-[4-(3,5-bis-trifluoromethylphenyl)furan-2-yl]-8-chloro-2-(2,4-difluorobenzyl)-2H-isoquinolin-1-one], 10 to 150 nM; under `Nc1ccc(-c2coc(-c3cc4cccc(Cl)c4c(=O)n3Cc3ccc(F)cc3F)c2)cc1C(F)(F)F` [3-[4-(4-amino-3-trifluoromethylphenyl)furan-2-yl]-8-chloro-2-(2,4-difluorobenzyl)-2H-isoquinolin-1-one], 10 to 150 nM.
Consider `O=c1c2c(Cl)cccc2cc(-c2ccc(Oc3ccccc3)cc2)n1Cc1ccc(F)cc1F` [8-chloro-2-(2,4-difluorobenzyl)-3-(4-phenoxyphenyl)-2H-isoquinolin-1-one], for which the Ki is 10 to 150 nM.
With `O=c1c2c(Cl)cccc2cc(-c2ccc(Oc3cnccn3)cc2)n1Cc1ccc(F)cc1F` [8-chloro-2-(2,4-difluorobenzyl)-3-[4-(pyrazin-2-yloxy)phenyl]-2H-isoquinolin-1-one], the Ki lay in the range of 10 to 150 nM.
Take `CS(=O)(=O)c1ccc(-c2ccc(-c3cc4cccc(Cl)c4c(=O)n3Cc3ccc(F)cc3F)s2)cc1` [8-chloro-2-(2,4-difluorobenzyl)-3-[5-(4-methanesulfonylphenyl)thiophen-2-yl]-2H-isoquinolin-1-one]: the Ki fell in the range of 10 to 150 nM.
For `O=c1c2c(Cl)cccc2cc(-c2ccc(Oc3ccccc3)cc2)n1CC1CCCCC1` [8-chloro-2-cyclohexylmethyl-3-(4-phenoxyphenyl)-2H-isoquinolin-1-one], the inhibition constant (Ki) lay in the range of 10 to 150 nM.
For the compound `O=c1c2c(Cl)cccc2cc(-c2ccc(Oc3ccccc3)cc2)n1Cc1cccs1` [8-chloro-3-(4-phenoxyphenyl)-2-thiophen-2-ylmethyl-2H-isoquinolin-1-one], the Ki was in the range of 10 to 150 nM.
As to `CCOc1ccc(-c2csc(-c3cc4cccc(Cl)c4c(=O)n3Cc3ccc(F)cc3F)c2)cc1Cl` [8-chloro-3-[4-(3-chloro-4-ethoxyphenyl)thiophen-2-yl]-2-(2,4-difluorobenzyl)-2H-isoquinolin-1-one], the Ki is 150 to 500 nM.
Regarding `Cc1ccc(Cn2c(-c3ccc(Oc4ccccc4)cc3)cc3cccc(C)c3c2=O)cc1` [8-methyl-2-(4-methylbenzyl)-3-(4-phenoxyphenyl)-2H-isoquinolin-1-one], the inhibitory constant (Ki) fell in the range of 10 to 150 nM.

The values above are taken from US7265131B2, “Isoquinolinone derivatives and their use as therapeutic agents” (Exelixis, Inc., priority 2002, dated 2007).
